What all share (assay type): biochemical
The target of assay [1] is T1, HvExoI (β-D-glucan glucohydrolase) (Hordeum vulgare, UniProt Q9XEI3, E245A).
T1 sequence (Q9XEI3 26-630 E245A): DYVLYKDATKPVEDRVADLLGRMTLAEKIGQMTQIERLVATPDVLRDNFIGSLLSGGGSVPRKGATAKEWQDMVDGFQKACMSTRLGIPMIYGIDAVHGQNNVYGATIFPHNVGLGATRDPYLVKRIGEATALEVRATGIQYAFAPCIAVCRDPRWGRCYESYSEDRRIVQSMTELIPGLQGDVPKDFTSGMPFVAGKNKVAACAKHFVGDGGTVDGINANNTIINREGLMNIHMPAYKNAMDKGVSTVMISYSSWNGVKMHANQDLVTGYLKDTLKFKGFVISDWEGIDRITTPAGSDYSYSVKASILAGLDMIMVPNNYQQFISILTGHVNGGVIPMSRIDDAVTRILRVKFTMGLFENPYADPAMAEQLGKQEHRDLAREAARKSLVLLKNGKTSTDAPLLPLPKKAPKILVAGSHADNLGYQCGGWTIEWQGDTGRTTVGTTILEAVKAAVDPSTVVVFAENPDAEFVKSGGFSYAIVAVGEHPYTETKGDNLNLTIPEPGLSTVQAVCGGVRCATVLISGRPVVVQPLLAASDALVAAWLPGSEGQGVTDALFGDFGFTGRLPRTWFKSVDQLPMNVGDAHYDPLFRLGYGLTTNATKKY
Briefly: X-ray crystal structure.

In assay [2] the target is T2, HvExoI (β-D-glucan glucohydrolase) (Hordeum vulgare, UniProt Q9XEI3).
T2 sequence (Q9XEI3 26-630): T1 sequence (Q9XEI3 26-630 E245A) with A220E
The assay can be described thus: competitive inhibition kinetics with 4NP-Glc.

Assay [3] addresses T1, HvExoI (β-D-glucan glucohydrolase). The assay can be described thus: competitive inhibition kinetics with 4NP-Glc.

Substitutions are numbered along the chain they refer to.

Data on 2 compounds can be found in publication PMC12065899 (Communications Biology, 2025).

Turning to `O=[N+]([O-])c1ccc(O[C@H]2O[C@H](CO)[C@@H](O)[C@H](O)[C@H]2F)c([N+](=O)[O-])c1` [2F-DNPGlc, 2,4-dinitrophenyl 2-deoxy-2-fluro-α-D-glucopyranoside], the Ki in assay [1] and in assay [2] was 500 nM in each case.
In assay [3], `O=C1O[C@H](CO)[C@@H](O)[C@H](O)[C@H]1O` [glucono-δ-lactone] had an inhibition constant (Ki) of 103000 nM.
